Source: patent US20160237450A1, “METHOD FOR ENHANCING DROUGHT TOLERANCE IN PLANTS” (Plant Response Biotech S.L., priority 2015, published 2016)

Tests used:
Format in all cases: in vivo
[1] = test system: tomato plants ('Moneymaker'); assay: Tomato plant survival under extreme drought
Procedure: (§1) For each drought or limited water experiment 480 seeds (of either pepper, barley, tomato, cucumber or corn) were sown, producing 384 plants in 512 cm^3 pots (4 plants per pot). Plants were grown under chamber conditions at 21° C. for 3 weeks. Then, the plants were moved to a greenhouse, where average temperature was 25° C. to 28° C. Spray and irrigation treatments as described herein were done when the plants had two extended leaves and the next pair of leaves were coming up.
(§2) Treatments: Twelve pots (containing 48 plants) were irrigated with 40 ml of either: water, 0.1 g/L TMAO di-hydrate solution, 1.0 g/L TMAO di-hydrate solution, or 5.5 g/L TMAO di-hydrate solution. Another set of 12 pots containing 48 plants were sprayed with 40 ml of either water (3.3 ml in average per pot), a solution containing 0.1 g/L TMAO di-hydrate solution, 1.0 g/L TMAO di-hydrate, or 5 g/L, or 10 g/L TMAO di-hydrate. Further sets of 12 pots containing 48 plants were both sprayed with each initial solution TMAO di-hydrate solution and further irrigated with the same TMAO di-hydrate solutions used in the control water sprayed plants. All pots were also watered with 40 ml of water. The sprayed plants were watered with the same volume of water as the “irrigated plants). The pots were located on plastic glass to maintain constant moisture and to avoid liquid spillage during watering. Trays containing the pots were located on greenhouse tables. The distribution of the trays on the table and the position on the pots in the tray was changed every week to avoid position effects.
(§3) After the treatments described above, the plants were not watered until the pots completely lost their moisture, taking about 4 to 8 days depending on the season, at which point the plants were extremely wilted for the extreme drought experiments. The plants were then watered once with solutions containing the different amounts of TMAO di-hydrate (0.1 g/L, 1.0 g/L, 5 g/L, or 10 g/L) or just water, after which the plants were left to lose their moisture completely again for three consecutive cycles of watering after wilting. For the “extreme drought” experiments plants were allowed to wilt severely before watering and then the plant survival rate was recorded and analyzed.
TMAO di-hydrate applied exogenously, which increases the endogenous content of TMAO as if the plants were overexpressing an FMO protein at least 4 times, increases tomato plant survival under extreme drought conditions, where plants were allowed to fully wilt after three water-wilt cycles. Moneymaker tomato seeds were sown, grown and treated as described above. No statistical differences between modes of application (sprayed or TMAO di-hydrate watered) were observed on this experiment.

[2] = test system: pepper plants ('Palermo'); assay: Pepper fruit production, spray or constant irrigation
Source text: TMAO di-hydrate applied exogenously which increases the endogenous content of TMAO as if the plants were overexpressing an FMO protein at least 4 times increases pepper production per plant and pepper fruit weight under limited water irrigation and under no stress. ‘Palermo’ pepper seeds were sown, grown and treated as described above.

pepper plants ('Murano') = assay: Pepper plant survival under extreme drought
Procedure: as §1, §2, §3
TMAO di-hydrate applied exogenously, which increases the endogenous content of TMAO as if the plants were overexpressing an FMO protein at least 4 times increases plant survival in pepper plants under extreme drought conditions. ‘Murano’ pepper seeds were sown, grown and treated as described above.

corn plants ('FAO700') [3] = assay: Corn chlorophyll content under limited water; conditions: 30% water; 1 g/L spray; after three months
Procedure: (§4) In order to determine the drought or drought stress tolerance after seed treatments with TMAO di-hydrate and germination in the presence of TMAO di-hydrate, barley “Hispanic” seeds, corn “FAO700” seeds, and “Sambro” sunflower seeds were surface sterilized for 3 minutes in ethanol 70%, then rinsed twice and finally included in a pre-treatment solution of 1 g/L TMAO di-hydrate solution (or just water) under shaking for 3 hours at a dose of 1 litre per Kg of seeds. Then, the seeds were sown in randomized plots of 10 sqm in a surface of 2.000 sqm. Chlorophyll content was measured 1 month before harvest. In corn irrigation was applied in half of the plots while the other half only received an initial establishment watering. The barley plots received 200 l of rain per m^2 through the growing season. Some of the plots received a second spray treatment with 1 g/liter of TMAO. […] At least 3 independent plants were treated per experiment.
TMAO di-hydrate applied exogenously increases plant production in corn which increases the endogenous content of TMAO as if the plants were overexpressing an FMO protein at least 4 times under limited water irrigation. ‘FAO700” corn seeds were sown, grown and treated as described above. […] After this time, the absorbance of the suspension (OD663) was determined as an indicator of chlorophyll concentration.

corn plants ('FAO700') [4] = assay: Corn number of green leaves under limited water; conditions: 30% water
Procedure: as §4
TMAO di-hydrate applied exogenously which increases the endogenous content of TMAO as if the plants were overexpressing an FMO protein at least 4 times increases plant production in corn under limited water irrigation. Plants were irrigated with 30% of the water they normally require. ‘FAO700’ corn seeds were sown, grown and treated as described. Spray treatments with 1 g/L TMAO increased plant number of green leaves.

[5] = irrigation 0.1 g/L, initial spray 0.1 g/L
[6] = irrigation 0.1 g/L, initial spray 1 g/L
[7] = irrigation 0.1 g/L, initial spray water
[8] = irrigation 1 g/L, initial spray 0.1 g/L
[9] = irrigation 1 g/L, initial spray 1 g/L
[10] = irrigation 1 g/L, initial spray water
[11] = irrigation 5 g/L, initial spray 0.1 g/L
[12] = irrigation 5 g/L, initial spray 1 g/L
[13] = irrigation 5 g/L, initial spray water
[14] = irrigation all regimes, initial spray 0.1 g/L
[15] = irrigation all regimes, initial spray 1 g/L
[16] = irrigation water, initial spray 0.1 g/L
[17] = irrigation water, initial spray 1 g/L
[18] = 30% water, 1 g/L in every irrigation

SMILES: C[N+](C)(C)[O-].O.O [TMAO di-hydrate, trimethylamine N-oxide di-hydrate]
- appearance of treated plants compared to untreated control ([1]; irrigated with 5.5 g/L, 24 hours after drought recovery (FIG. 9)): extremely healthy
- SURVIVAL RATE (%) [1, 5]: 12.5 ± 8.5%
- SURVIVAL RATE (%) [1, 6]: 41.6 ± 8.5%
- SURVIVAL RATE (%) ([1]; irrigation 0.1 g/L, initial spray 5 g/L): 68.9 ± 8.5%
- SURVIVAL RATE (%) [1, 7]: 16.6 ± 8.5%
- SURVIVAL RATE (%) [1, 8]: 0.0 ± 7.5%
- SURVIVAL RATE (%) [1, 9]: 29.1 ± 7.5%
- SURVIVAL RATE (%) ([1]; irrigation 1 g/L, initial spray 5 g/L): 33.3 ± 7.5%
- SURVIVAL RATE (%) [1, 10]: 4.1 ± 7.5%
- SURVIVAL RATE (%) [1, 11]: 12.5 ± 8.0%
- SURVIVAL RATE (%) [1, 12]: 16.6 ± 8.0%
- SURVIVAL RATE (%) ([1]; irrigation 5 g/L, initial spray 5 g/L): 50.0 ± 8.0%
- SURVIVAL RATE (%) [1, 13]: 8.3 ± 8.0%
- SURVIVAL RATE (%) [1, 14]: 12.5 ± 4.1%
- SURVIVAL RATE (%) [1, 15]: 37.5 ± 4.1%
- SURVIVAL RATE (%) ([1]; irrigation all regimes, initial spray 5 g/L): 56.6 ± 4.1%
- SURVIVAL RATE (%) [1, 16]: 29.1 ± 9.1%
- SURVIVAL RATE (%) [1, 17]: 62.5 ± 9.1%
- SURVIVAL RATE (%) ([1]; irrigation water, initial spray 5 g/L): 74.2 ± 9.1%
- increase in average fruit weight production per pepper plant versus 100% irrigation untreated [2, 18]: 13.3%
- increase in average weight per pepper fruit versus 100% irrigation untreated [2, 18]: 11.9%
- AVERAGE FRUIT WEIGHT (GRAMS) PER PEPPER PLANT ([2]; 30% water, 1 g/L irrigation): 545.0 ± 36.4 GRAMS
- AVERAGE FRUIT WEIGHT (GRAMS) PER PEPPER PLANT ([2]; 30% water, 1 g/L spray): 504.8 ± 46.4 GRAMS
- AVERAGE WEIGHT (GRAMS) PER PEPPER FRUIT ([2]; 30% water, 1 g/L spray): 33.5 ± 0.9 GRAMS
- increase in average fruit weight production per pepper plant versus 100% irrigation untreated ([2]; 30% water, 1 g/L spray): 4.9%
- increase in average fruit weight production per pepper plant in the absence of stress ([2]; 100% water, 1 g/L in every irrigation): 17.9%
- AVERAGE FRUIT WEIGHT (GRAMS) PER PEPPER PLANT ([2]; 100% water, 1 g/L irrigation): 567.4 ± 19.6 GRAMS
- AVERAGE WEIGHT (GRAMS) PER PEPPER FRUIT ([2]; 100% water, 1 g/L irrigation): 35.7 ± 1.3 GRAMS
- SURVIVAL RATE (%) (pepper plants ('Murano'); [5]): 33.3 ± 8.3%
- SURVIVAL RATE (%) (pepper plants ('Murano'); [6]): 54.1 ± 8.3%
- SURVIVAL RATE (%) (pepper plants ('Murano'); irrigation 0.1 g/L, initial spray 10 g/L): 83.3 ± 8.3%
- SURVIVAL RATE (%) (pepper plants ('Murano'); [7]): 29.1 ± 8.3%
- SURVIVAL RATE (%) (pepper plants ('Murano'); [8]): 33.3 ± 7.7%
- SURVIVAL RATE (%) (pepper plants ('Murano'); [9]): 33.3 ± 7.7%
- SURVIVAL RATE (%) (pepper plants ('Murano'); irrigation 1 g/L, initial spray 10 g/L): 37.5 ± 7.7%
- SURVIVAL RATE (%) (pepper plants ('Murano'); [10]): 0.0 ± 7.7%
- SURVIVAL RATE (%) (pepper plants ('Murano'); [11]): 100 ± 3.8%
- SURVIVAL RATE (%) (pepper plants ('Murano'); [12]): 100 ± 3.8%
- SURVIVAL RATE (%) (pepper plants ('Murano'); irrigation 5 g/L, initial spray 10 g/L): 87.5 ± 3.8%
- SURVIVAL RATE (%) (pepper plants ('Murano'); [13]): 95.8 ± 3.8%
- SURVIVAL RATE (%) (pepper plants ('Murano'); [14]): 51.0 ± 3.6%
- SURVIVAL RATE (%) (pepper plants ('Murano'); [15]): 62.5 ± 3.6%
- SURVIVAL RATE (%) (pepper plants ('Murano'); irrigation all regimes, initial spray 10 g/L): 71.8 ± 3.6%
- SURVIVAL RATE (%) (pepper plants ('Murano'); [16]): 37.5 ± 8.1%
- SURVIVAL RATE (%) (pepper plants ('Murano'); [17]): 62.5 ± 8.1%
- SURVIVAL RATE (%) (pepper plants ('Murano'); irrigation water, initial spray 10 g/L): 79.1 ± 8.1%
- OD663 ABSORVANCE (CHLOROPHYLL a) (corn plants ('FAO700') [3]): 0.7278 ± 0.076
- increase in biomass production shown in green leaf production over untreated plants with 30% irrigation (corn plants ('FAO700') [4]; 1 g/L (rows 3 and 4: spray, seed)): 47%
- AVERAGE NUMBER OF GREEN LEAVES (corn plants ('FAO700') [4]; 1 g/L seed treatment): 8.50 ± 0.41
- AVERAGE NUMBER OF GREEN LEAVES (corn plants ('FAO700') [4]; 1 g/L spray): 8.50 ± 0.25
